Measured values reported in US20100160391A1, “Substituted Aminopyridines as Fluorescent Reporters for Amide Hydrolases” (priority 2006, published 2010).
Marks after values point to notes of the source that are not given here.

What was measured:
[1] = Molar extinction coefficient of fluorescent reporters; format: physicochemical; details: H2O containing 1% ethanol, 290 nm, 30° C., 10-50 μM
Description: Molar extinction coefficient. According to Beer's law, Aλ=ε*C*L, where Aλ is the absorbance at wavelength (λ nm); ε is called the molar extinction coefficient; L is the width of the sample cuvette; and C is the concentration of the solute. In this example, a series of concentrations falling between 10 and 50 μM (final concentration) for each fluorescent reporter was used for determination of the molar extinction coefficient. Assays were performed in a quartz cuvette (1 cm optical passage). 10 μl of a stock solution of a reporter in ethanol (1, 2, 3, 4, or 5 mM) was added to 990 μl H2O. The resulting mixture was degassed by sonication with ultrasonic cleaner Model 750 (VWR International; Wester, Pa.) for 10 seconds at a power level of 9. Measurements were performed with a Spectra Max M2 spectrophotometer (Molecular Devices; Sunnyvale, Calif.) at a wavelength of 290 nm. A slope (or extinction coefficient) was obtained by using an average absorbance of triplicate samples.

[2] = Maximal excitation and emission wavelengths; format: physicochemical; details: 50 μM in 0.1 M phosphate buffer, 30° C.; SD ±2 nm
Description: Maximal excitation and emission wavelengths. A stock solution in ethanol of each compound (10 μl, 5 mM) was added to 990 μl of sodium phosphate buffer (0.1 M, pH 8.0, final substrate concentration 50 μM) in a 1-cm quartz cuvette. The quartz cuvette was scanned from 200 to 500 nm for absorption spectra with a Spectra Max M2 spectrophotometer. Maximal excitation and emission wavelengths were obtained from scanning from 250 to 600 nm and 360 to 600 nm by a 2 nm interval at 30° C., respectively.

[3] = Fluorescence quantum yield; format: physicochemical; details: 10 μM, 1% ethanol in water, excitation 290 nm, standard 3-aminopyridine; SD under ±5%
Description: Quantum yield. The fluorescence quantum yield, φf, was calculated according to the following equation:
ØF=Østd*(I/Istd)*(ODstd/OD)*(n/nstd)^2,
wherein ØF is the quantum yield of the tested fluorescent reporter; Østd is the fluorescence quantum yield of the standard; I and Istd are the integrated emission intensities of the sample and the standard, respectively; OD and ODstd are the absorbance of the sample and standard, respectively, at the desired wavelength λex; and n and nstd are the indexes of refraction of the sample and standard solutions, respectively (Horspool and Song (Eds.), CRC Handbook of Organic Photochemistry I, pp 234-235, CRC Press, Boca Raton, Fla., 1995).
In this example, 3-aminopyridine in water at the maximal excitation wavelength of 290 nm was used as a standard (Østd=0.32, εmax=2800 M^−1 cm^−1) (see, e.g., Weisstuch et al., J. Phys. Chem., 72:1982-1987 (1968)). In order to minimize inner filter effects, the optical densities of samples at the excitation wavelength (λ=290 nm) were kept in the range of 0.095-0.13 (less than 0.150-0.165). The final concentration of each tested sample in a quartz cuvette was 10 μM with 1% ethanol in water, same as that for the standard. The integrated area of fluorescent intensity for the standard or the samples was based on the area between 360 and 500 nm. The difference of the index of refraction between the standard and the sample was neglected because (1) all measurements were performed in the same quartz cuvette and spectrofluorimeter; (2) the final concentrations of the sample and the standard were the same; and (3) the structures of the sample and standard were very similar, i.e., only one pyridine ring. The quantum yields presented in Table 1 were based on calculation of the average of OD and integrated fluorescent intensities of triplicates. The standard deviation for each quantum yield was less than ±5%.

[4] = target: T1, L-Leucine aminopeptidase from porcine kidney microsomes (Sus scrofa, UniProt P15145); experiment: Sensitivity of L-Leucine aminopeptidase toward colorimetric and fluorescent substrates; format: biochemical; details: for base line, Average: 0 min; for base line, Average / signal, Average: 25 μM; for signal, Average: 10 min; for Protein, lowest detection limit of L-Leucine aminopeptidase (signal at 10 min ≥ 3 times base line): substrate 25 μM
T1 construct: purchased Sigma-Aldrich L5006; host or cells: porcine kidney microsomes
T1 sequence (P15145 1-963): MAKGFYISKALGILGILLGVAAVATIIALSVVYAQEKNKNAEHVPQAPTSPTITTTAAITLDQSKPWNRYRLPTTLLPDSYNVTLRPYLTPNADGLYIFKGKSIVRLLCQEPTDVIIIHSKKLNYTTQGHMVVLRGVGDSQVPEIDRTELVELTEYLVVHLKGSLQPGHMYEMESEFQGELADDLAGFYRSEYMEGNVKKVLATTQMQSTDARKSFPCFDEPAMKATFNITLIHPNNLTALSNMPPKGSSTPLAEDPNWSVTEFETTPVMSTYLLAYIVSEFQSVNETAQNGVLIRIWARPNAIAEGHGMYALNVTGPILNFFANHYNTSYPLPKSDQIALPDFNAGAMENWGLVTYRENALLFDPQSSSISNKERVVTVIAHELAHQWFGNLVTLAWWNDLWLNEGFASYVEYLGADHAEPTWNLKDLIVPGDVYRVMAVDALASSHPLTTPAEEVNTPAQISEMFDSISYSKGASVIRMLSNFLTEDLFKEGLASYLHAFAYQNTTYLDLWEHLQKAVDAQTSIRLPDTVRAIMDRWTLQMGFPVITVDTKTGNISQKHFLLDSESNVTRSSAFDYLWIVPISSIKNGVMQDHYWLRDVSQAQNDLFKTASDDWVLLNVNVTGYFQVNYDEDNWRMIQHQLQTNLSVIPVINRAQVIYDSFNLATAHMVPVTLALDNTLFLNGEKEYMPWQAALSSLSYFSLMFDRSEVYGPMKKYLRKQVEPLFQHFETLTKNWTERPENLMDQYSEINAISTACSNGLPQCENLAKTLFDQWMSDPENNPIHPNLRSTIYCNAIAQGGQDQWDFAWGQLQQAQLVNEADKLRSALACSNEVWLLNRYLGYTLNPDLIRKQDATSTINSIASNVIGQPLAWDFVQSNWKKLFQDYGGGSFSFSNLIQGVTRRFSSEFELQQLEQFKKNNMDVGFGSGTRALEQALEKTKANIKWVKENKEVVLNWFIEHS
Description: Comparison of the sensitivities of L-Leucine aminopeptidase toward colorimetric and fluorescent substrates. In general, all assays were performed in 96-well styrene flat-bottom microtiter plates using a Spectra Max M2 spectrophotometer at 37° C. for 10 min. The total volume of each well was 201 μl containing 0.1 M sodium phosphate buffer (190 μl, pH 7.2), stock or diluted protein solution (10 μl), and 5 mM of the substrate solution (1 μl) in either ethanol for substrates (18) and (19). The lowest detection limit of microsomal L-Leucine aminopeptidase by substrates was determined by the fact that the signal at 10 min was equal to or over 3 times the basal line at 0 min. Colorimetric substrates assays (e.g., (20)) were performed in clear 96-well microtititer plates using an absorbance wavelength of 382 nm. The fluorescent substrates containing 5-amino-2-methoxypyridine (e.g., (19)) were measured at an excitation wavelength (302 nm), emission wavelength (396 nm), and auto cutoff wavelength (325 nm). Similarly, the fluorescent substrates containing 5-amino-2-methoxy-6-methylpyridine (e.g., (18)) were measured at an excitation wavelength (304 nm), emission wavelength (392 nm), and auto cutoff wavelength (325 nm).

[5] = pH 7.2, 37° C., protein 1.97 (18), 0.018 (19) μg/well
[6] = absorbance 382 nm, protein 1.97 μg/well

| Compound | εmax, molar extinction coefficient [1] [M⁻¹ cm⁻¹] | Em, maximal emission wavelength [2] [nm] | Ex, maximal excitation wavelength [2] [nm] | ØF, fluorescence quantum yield [3] | Protein, lowest detection limit of L-Leucine aminopeptidase (signal at 10 min ≥ 3 times base line) ([4]; pH 7.2, 37° C.) [μg/200 μL] | other results |
| --- | --- | --- | --- | --- | --- | --- |
| COc1ccc(NC(=O)[C@@H](N)CC(C)C)c(C)n1 [Compound 18, N-(6-methoxy-2-methylpyridin-3-yl), (S)-2-amino-4-methylpentanamide] | – | – | – | – | 1.97 | base line, Average [4, 5]: 164 RFU/sec; signal, Average [4, 5]: 494* RFU/sec |
| CC(C)C[C@H](N)C(=O)Nc1ccc([N+](=O)[O-])cc1 [Compound 20, L-Leucine-p-nitroanilide] | – | – | – | – | 1.97 | base line, Average [4, 6]: 0.08 OD; signal, Average [4, 6]: 0.24* OD |
| COc1ccc(NC(=O)[C@@H](N)CC(C)C)cn1 [Compound 19, N-(6-methoxypyridin-3-yl), (S)-2-amino-4-methylpentanamide] | – | – | – | – | 0.018 | base line, Average [4, 5]: 67 RFU/sec; signal, Average [4, 5]: 228* RFU/sec; times more sensitive than substrate (20) ([4]; Table 5): at least 100 times |
| Cc1ccncc1N [Compound 2, 3-amino-4-methylpyridine] | 2580 | 376 | 280 | 0.53 | – | – |
| COc1ccc(NC(C)=O)c(C)n1 [Compound 11, N-(6-methoxy-2-methylpyridin-3-yl) acetamide] | – | – | – | – | – | melting point: 130.1 to 130.4 °C |
| Cc1ccc(N)cn1 [Compound 3, 3-amino-6-methylpyridine] | 2700 | 384 | 290 | 0.62 | – | – |

Second part, led by results:

| εmax, molar extinction coefficient [1] [M⁻¹ cm⁻¹] | Em, maximal emission wavelength [2] [nm] | Ex, maximal excitation wavelength [2] [nm] | ØF, fluorescence quantum yield [3] | Protein, lowest detection limit of L-Leucine aminopeptidase (signal at 10 min ≥ 3 times base line) ([4]; pH 7.2, 37° C.) [μg/200 μL] | Compound | other results |
| --- | --- | --- | --- | --- | --- | --- |
| 4670 | 378 | 284 | 0.27 | – | COc1ncccc1N [Compound 7, 3-amino-2-methoxypyridine] | – |
| 4130 | 392 | 304 | 0.97 | – | COc1ccc(N)c(C)n1 [Compound 8, 3-amino-6-methoxy-2-picoline] | – |
| 3670 | 374 | 282 | 0.04 | – | Nc1cccnc1F [Compound 4, 3-amino-2-fluoropyridine] | – |
| 2360 | 384 | 292 | 0.72 | – | Nc1ccc(F)nc1 [Compound 5, 5-amino-2-fluoropyridine] | – |
